Like-named read-outs stand apart in the source and are kept apart here.
Tests used:
PLP-Ia = type: biochemical, Achromobacter lyticus M 497-1
[1] = molecular target: water-soluble cross-linked polymer of PLP (Achromobacter lyticus, UniProt P15636); assay: Activity to substrates (substrate specificity), cross-linked polymer; type: biochemical; details: enzyme: Cross-Linked Polymer (0.144 u); pH 9.5, 30°C; Benzoyl lysine-p-nitroanilide = 100
Procedure: (§1) The activity of the enzyme was measured as follows. […] After preliminarily warming at 30°C, 0.1 mℓ of the enzyme was added to the mixture and the mixture was reacted accurately for 25 minutes at 30°C. After completion of the reaction, 1.0 mℓ of a 45% acetic acid aqueous solution was added to discontinue the reaction. Then, the reaction liquid was colorimetrically measured at wavelength of 405 nm to determine absorbance. As an enzyme unit, an amount of enzyme producing 1 µmole/min of p-nitroaniline at 30°C was made 1 unit (u). Enzyme titer was calculated according to the following equation. [formula] […] Thereafter, activities to the respective substrates were measured according to the method for measuring activity described above. Results of Table 8 were obtained.

[2] = molecular target: PLP prior to Polymerization (Achromobacter lyticus, UniProt P15636); assay: Activity to substrates (substrate specificity), PLP prior to polymerization; type: biochemical; details: enzyme: PLP prior to Polymerization; pH 9.5, 30°C; Benzoyl lysine-p-nitroanilide = 100
Procedure: as §1

Achromobacter protease I = Achromobacter protease I (Achromobacter lyticus, UniProt P15636); details: cited from earlier work
Sequence of Achromobacter protease I (P15636 206-473 limits assumed): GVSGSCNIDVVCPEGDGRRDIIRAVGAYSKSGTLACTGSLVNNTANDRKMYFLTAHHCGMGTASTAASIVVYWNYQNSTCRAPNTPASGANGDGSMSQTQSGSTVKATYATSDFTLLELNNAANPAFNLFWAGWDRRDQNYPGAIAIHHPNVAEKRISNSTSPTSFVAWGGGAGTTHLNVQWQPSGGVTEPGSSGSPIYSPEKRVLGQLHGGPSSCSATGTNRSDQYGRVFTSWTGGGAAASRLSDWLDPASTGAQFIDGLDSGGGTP

Sequence of PLP prior to Polymerization (P15636 206-473 limits assumed): as above
Sequence of water-soluble cross-linked polymer of PLP (P15636 206-473 limits assumed): as above

Molecule	Relative Activity (PLP-Ia; 1000 µM)	Relative Activity [1]	Relative Activity [2]	also measured
O[C@H](CS)[C@H](O)CS (racemic) [dithiothreitol]	103.9%	–	–	–
CC(=O)N[C@@H](Cc1ccccc1)C(=O)Nc1ccc([N+](=O)[O-])cc1 [Acetylphenylalanine-p-nitroanilide]	–	0.00%	0.00%	–
C[C@H](N)C(=O)Nc1ccc([N+](=O)[O-])cc1 [Alanine-p-nitroanilide]	–	0.00%	0.00%	–
N=C(N)NCCC[C@H](NC(=O)c1ccccc1)C(=O)Nc1ccc([N+](=O)[O-])cc1 [Benzoyl arginine-p-nitroanilide]	–	0.04%	0.01%	–
NCCCC[C@H](NC(=O)c1ccccc1)C(=O)Nc1ccc([N+](=O)[O-])cc1 [Benzoyl lysine-p-nitroanilide]	–	100%	100%	–
O=C(N[C@@H](Cc1ccc(O)cc1)C(=O)Nc1ccc([N+](=O)[O-])cc1)c1ccccc1 [Benzoyl tyrosine-p-nitroanilide]	–	0.00%	0.00%	–
[Ca+2].[Cl-].[Cl-] [CaCℓ₂]	102.2%	–	–	–
N[C@@H](CCC(=O)O)C(=O)Nc1ccc([N+](=O)[O-])cc1 [Glutamic acid-p-nitroanilide]	–	0.00%	0.00%	–
[Cl][Hg][Cl] [HgCℓ₂]	–	–	–	Relative Activity (PLP-Ia; 100 µM): 109.4%
N[C@@H](CS)C(=O)O [L-cystein]	97.8%	–	–	–
CC(C)C[C@H](N)C(=O)Nc1ccc([N+](=O)[O-])cc1 [Leucine-p-nitroanilide]	–	0.00%	0.00%	–
NCCCC[C@H](N)C(=O)Nc1ccc([N+](=O)[O-])cc1 [Lysine-p-nitroanilide]	–	5.6%	2.4%	–
[Cl-].[Na+] [NaCℓ₂]	–	–	–	Relative Activity (PLP-Ia; bz-lys-p-na amidase assay, pH 9.5, 25 min, 1000 µM): 99.0%
[Cl-].[Cl-].[Zn+2] [ZnCℓ₂]	44.1%	–	–	inhibition of the enzyme (in words) (PLP-Ia): inhibited
O=C(O)CI [monoiodoacetate]	84.4%	–	–	–
c1cnc2c(c1)ccc1cccnc12 [o-phenanthroline]	99.3%	–	–	inhibition of the enzyme (in words) (Achromobacter protease I): not inhibited
O=C(O)c1cc[c]([Hg][Cl])cc1 [p-chloromercury benzoate]	–	–	–	Relative Activity (PLP-Ia; 100 µM): 94.8%; inhibition of the enzyme (in words) (Achromobacter protease I): not inhibited
O=S(=O)(F)Cc1ccccc1 [phenylmethylsulfonyl fluoride]	–	–	–	inhibition of the enzyme (in words) (PLP-Ia): undergoes inhibition; Relative Activity (PLP-Ia; 2000 µM): 18.3%
Cc1ccc(S(=O)(=O)N[C@@H](CCCNC(=N)N)C(=O)CCl)cc1 [tosyl-L-arginine chloromethyl ketone]	–	–	–	Relative Activity (PLP-Ia; 100 µM): 79.1%
Cc1ccc(S(=O)(=O)N[C@@H](CCCCN)C(=O)CCl)cc1 [tosyl-L-lysine chloromethyl ketone]	–	–	–	inhibition of the enzyme (in words) (PLP-Ia): undergoes inhibition; Relative Activity (PLP-Ia; 100 µM): 0%; inhibition of the enzyme (in words) (Achromobacter protease I): strongly inhibited
Cc1ccc(S(=O)(=O)N[C@@H](Cc2ccccc2)C(=O)CCl)cc1 [tosyl-L-phenylalanine chloromethyl ketone]	92.2%	–	–	inhibition of the enzyme (in words) (Achromobacter protease I): not inhibited
CoCℓ₂	98.1%	–	–	–
MgCℓ₂	95.3%	–	–	–
MnCℓ₂	101.3%	–	–	–
NiCℓ₂	83.8%	–	–	–
diisopropyl phosphochloride	–	–	–	inhibition of the enzyme (in words) (Achromobacter protease I): strongly inhibited

Source: patent EP0367302A2, “Process for semi-synthesis of human insulin, water-soluble cross-linked Achromobacter protease I for use therein and a process for preparing the same” (priority 1982, dated 1983)
